Calls of active or inactive are those of the source. No cut-off for these calls is given here.
Assays:
[1] = biological target: Acetylcholinesterase (Homo sapiens, UniProt P22303); assay: Inhibition of human erythrocytes AChE using acetylthiocholine iodide as substrate preincubated for 10 mins followed by substrate addition by Ellman's method; type: tissue-based, Erythrocyte
[2] = biological target: Cholinesterase (Homo sapiens, UniProt P06276); assay: Inhibition of human serum BChE using butyrylthiocholine iodide as substrate preincubated for 10 mins followed by substrate addition by Ellman's method; type: cell-free
Chain of Cholinesterase (P06276 whole entry): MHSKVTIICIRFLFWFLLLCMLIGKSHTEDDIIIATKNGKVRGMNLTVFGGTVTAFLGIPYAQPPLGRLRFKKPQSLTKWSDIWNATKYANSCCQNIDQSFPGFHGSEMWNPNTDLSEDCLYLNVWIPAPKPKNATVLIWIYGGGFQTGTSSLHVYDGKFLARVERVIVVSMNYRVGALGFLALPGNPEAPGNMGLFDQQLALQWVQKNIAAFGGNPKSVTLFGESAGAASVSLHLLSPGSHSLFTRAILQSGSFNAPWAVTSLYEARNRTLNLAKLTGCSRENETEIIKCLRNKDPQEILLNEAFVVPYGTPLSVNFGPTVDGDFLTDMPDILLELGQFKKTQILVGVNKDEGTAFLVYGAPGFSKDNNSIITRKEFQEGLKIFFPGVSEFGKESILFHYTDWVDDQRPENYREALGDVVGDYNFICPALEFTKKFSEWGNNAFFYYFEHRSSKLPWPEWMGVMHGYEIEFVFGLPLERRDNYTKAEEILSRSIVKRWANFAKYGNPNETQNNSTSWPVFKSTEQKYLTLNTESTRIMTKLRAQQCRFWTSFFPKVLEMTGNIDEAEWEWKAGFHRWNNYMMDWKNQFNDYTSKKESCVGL

[3] = biological target: Beta-secretase 1 (Homo sapiens, UniProt P56817); assay: Inhibition of human BACE-1 using MOCA-SEV-NL-DAEFR-DNP-RR as substrate preincubated with substrate followed by enzyme addition by FRET assay
Chain of Beta-secretase 1 (P56817 whole entry, the tested form may be a part): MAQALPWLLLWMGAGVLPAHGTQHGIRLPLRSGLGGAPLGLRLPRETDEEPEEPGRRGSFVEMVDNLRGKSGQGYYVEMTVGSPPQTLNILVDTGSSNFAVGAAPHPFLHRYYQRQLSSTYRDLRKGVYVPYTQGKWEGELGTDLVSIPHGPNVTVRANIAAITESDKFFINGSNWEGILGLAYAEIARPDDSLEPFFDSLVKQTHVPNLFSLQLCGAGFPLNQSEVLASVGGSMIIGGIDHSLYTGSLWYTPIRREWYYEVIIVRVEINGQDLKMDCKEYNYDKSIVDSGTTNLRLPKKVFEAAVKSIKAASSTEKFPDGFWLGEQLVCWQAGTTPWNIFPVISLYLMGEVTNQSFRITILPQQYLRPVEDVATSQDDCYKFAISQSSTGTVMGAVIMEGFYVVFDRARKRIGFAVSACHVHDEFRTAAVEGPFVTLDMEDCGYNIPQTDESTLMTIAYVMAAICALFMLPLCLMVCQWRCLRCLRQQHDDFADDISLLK

[4] = test system: Rattus norvegicus; assay: Improvement in learning and spatial memory in icv infused amyloid beta (1 to 42)-induced rat model of Alzheimer's disease assessed as increase in number of platform crossing at 5 mg/kg, po administered daily for 7 days starting from 7 days post surgery and measured after 6 days by Morris water maze test; type: functional, organism-based; conditions: time 13.0 day
[5] = test system: Rattus norvegicus; assay: Improvement in learning and spatial memory in icv infused amyloid beta (1 to 42)-induced rat model of Alzheimer's disease assessed as reduction in escape latency at 5 mg/kg, po administered daily for 7 days starting from 7 days post surgery and measured daily for 5 days by Morris water maze test; type: functional, organism-based; conditions: time 12.0 day
[6] = biological target: Amyloid-beta precursor protein (Homo sapiens) (UniProt P05067); conditions: dose microM 5-20, time 48.0 hrs
Chain of Amyloid-beta precursor protein (Homo sapiens) (P05067 whole entry): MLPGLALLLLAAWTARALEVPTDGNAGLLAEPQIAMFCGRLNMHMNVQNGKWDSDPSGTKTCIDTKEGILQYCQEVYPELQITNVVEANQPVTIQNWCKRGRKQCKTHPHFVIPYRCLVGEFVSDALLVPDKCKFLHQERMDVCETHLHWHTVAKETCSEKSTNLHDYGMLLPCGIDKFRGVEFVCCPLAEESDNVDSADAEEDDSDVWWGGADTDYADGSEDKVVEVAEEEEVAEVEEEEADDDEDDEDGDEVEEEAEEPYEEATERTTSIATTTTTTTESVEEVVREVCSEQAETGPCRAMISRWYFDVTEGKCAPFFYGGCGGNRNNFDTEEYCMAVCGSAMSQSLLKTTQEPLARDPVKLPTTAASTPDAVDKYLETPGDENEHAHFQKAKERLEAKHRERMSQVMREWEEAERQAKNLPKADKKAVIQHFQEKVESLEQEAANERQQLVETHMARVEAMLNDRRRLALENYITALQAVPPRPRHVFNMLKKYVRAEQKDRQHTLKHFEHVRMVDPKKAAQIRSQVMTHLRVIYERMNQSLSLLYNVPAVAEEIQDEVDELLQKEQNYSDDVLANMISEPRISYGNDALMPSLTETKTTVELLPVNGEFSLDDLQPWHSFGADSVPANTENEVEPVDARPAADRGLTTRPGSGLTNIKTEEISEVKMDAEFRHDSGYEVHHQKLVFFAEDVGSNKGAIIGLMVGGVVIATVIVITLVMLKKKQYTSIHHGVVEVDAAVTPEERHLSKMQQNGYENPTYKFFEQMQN

[7] = organism: Rattus norvegicus; conditions: Wistar, dose 5.0 mg/kg, time 7.0 day
[8] = Permeability of the compound in PBS/EtOH buffer (7:3) at 25 ug/ml after 18 hrs by PAMPA-BBB assay

Chain of Acetylcholinesterase (P22303 whole entry): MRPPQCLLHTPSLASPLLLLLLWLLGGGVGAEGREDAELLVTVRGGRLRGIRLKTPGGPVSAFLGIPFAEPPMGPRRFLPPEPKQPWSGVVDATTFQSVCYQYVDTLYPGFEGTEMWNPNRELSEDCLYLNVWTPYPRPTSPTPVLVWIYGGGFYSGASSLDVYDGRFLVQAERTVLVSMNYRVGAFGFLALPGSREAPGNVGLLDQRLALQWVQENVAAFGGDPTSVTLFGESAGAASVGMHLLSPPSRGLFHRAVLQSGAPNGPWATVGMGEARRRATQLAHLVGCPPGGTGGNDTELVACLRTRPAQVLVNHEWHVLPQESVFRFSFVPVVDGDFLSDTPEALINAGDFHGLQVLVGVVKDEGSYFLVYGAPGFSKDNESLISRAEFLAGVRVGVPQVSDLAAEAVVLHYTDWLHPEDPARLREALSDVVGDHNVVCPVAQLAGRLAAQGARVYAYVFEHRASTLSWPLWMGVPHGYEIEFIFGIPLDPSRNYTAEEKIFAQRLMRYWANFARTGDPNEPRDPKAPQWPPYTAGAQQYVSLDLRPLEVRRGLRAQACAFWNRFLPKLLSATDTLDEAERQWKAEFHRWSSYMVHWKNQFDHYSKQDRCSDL

Compound	IC50 [1] [µM]	IC50 [2] [µM]	IC50 [3] [µM]	Activity [4]	Activity [5]	Flu intensity [6]	inhibition [7]	Papp at 18 h, 25 ug/ml [8] [×10⁻⁶ cm/s]
O=C(N/N=C/c1ccc([N+](=O)[O-])cc1)N1CCN(c2ccccn2)CC1	1.16	4.02	2.64					
COc1cccc(/C=N/NC(=O)N2CCN(c3ccccn3)CC2)c1OC	> 10	> 10	6.82					
O=C(N/N=C/c1ccc(O)cc1O)N1CCN(c2ccccn2)CC1	4.68	4.82	4.64					
Fc1ccc(-c2nnc(N3CCN(c4ccccn4)CC3)o2)cc1	0.136	1.22	1.48					
COc1cc(-c2nnc(N3CCN(c4ccccn4)CC3)o2)cc(OC)c1OC	0.222	3.64	3.24					
O=C(N/N=C/c1ccccc1)N1CCN(c2ccccn2)CC1	3.62	4.22	7.69					
COc1cc2c(cc1OC)C(=O)C(CC1CCN(Cc3ccccc3)CC1)C2 (configuration not stated)				Active	Active	0.31	Active	
Cc1ccc(/C=N/NC(=O)N2CCN(c3ccccn3)CC2)cc1	4.78	> 10	3.92					
Oc1ccc(-c2nnc(N3CCN(c4ccccn4)CC3)o2)cc1	1.18	6.02	1.78					
Cc1cccc(-c2nnc(N3CCN(c4ccccn4)CC3)o2)c1	5.24	> 10	2.64					
Cc1ccc(-c2nnc(N3CCN(c4ccccn4)CC3)o2)cc1	1.02	> 10	2.48					
c1ccc(-c2nnc(N3CCN(c4ccccn4)CC3)o2)cc1	0.341	3.27	3.22					
COc1cc(/C=N/NC(=O)N2CCN(c3ccccn3)CC2)cc(OC)c1OC	5.69	4.68	4.64					
O=C(N/N=C/c1ccc(F)cc1)N1CCN(c2ccccn2)CC1	1.87	3.99	1.24					
FC(F)(F)c1ccc(-c2nnc(N3CCN(c4ccccn4)CC3)o2)cc1	0.182	2.12	0.465					6.3

Source: ChEMBL document CHEMBL4665668, “Design and development of molecular hybrids of 2-pyridylpiperazine and 5-phenyl-1,3,4-oxadiazoles as potential multifunctional agents to treat Alzheimer's disease” (Eur J Med Chem, 2019)
